Test results: PMC12249582, “Ruxolitinib Modulates P-Glycoprotein Function, Delays T Cell Activation, and Impairs CCL19 Chemokine-Directed Migration in Human Cytotoxic T Lymphocytes” (International Journal of Molecular Sciences, 2025)

Molecular target: T1, P-glycoprotein (Pgp/ABCB1) (Homo sapiens, UniProt P08183)
T1 construct: human Pgp stably expressed in NIH-3T3 MDR1 cells (cells and raw membrane preparations)
Assay: calcein-AM efflux inhibition in NIH-3T3 MDR1 cells (IC50); vanadate-sensitive ATPase stimulation in Pgp membranes
Type: cell-based

T1 sequence (P08183 whole entry): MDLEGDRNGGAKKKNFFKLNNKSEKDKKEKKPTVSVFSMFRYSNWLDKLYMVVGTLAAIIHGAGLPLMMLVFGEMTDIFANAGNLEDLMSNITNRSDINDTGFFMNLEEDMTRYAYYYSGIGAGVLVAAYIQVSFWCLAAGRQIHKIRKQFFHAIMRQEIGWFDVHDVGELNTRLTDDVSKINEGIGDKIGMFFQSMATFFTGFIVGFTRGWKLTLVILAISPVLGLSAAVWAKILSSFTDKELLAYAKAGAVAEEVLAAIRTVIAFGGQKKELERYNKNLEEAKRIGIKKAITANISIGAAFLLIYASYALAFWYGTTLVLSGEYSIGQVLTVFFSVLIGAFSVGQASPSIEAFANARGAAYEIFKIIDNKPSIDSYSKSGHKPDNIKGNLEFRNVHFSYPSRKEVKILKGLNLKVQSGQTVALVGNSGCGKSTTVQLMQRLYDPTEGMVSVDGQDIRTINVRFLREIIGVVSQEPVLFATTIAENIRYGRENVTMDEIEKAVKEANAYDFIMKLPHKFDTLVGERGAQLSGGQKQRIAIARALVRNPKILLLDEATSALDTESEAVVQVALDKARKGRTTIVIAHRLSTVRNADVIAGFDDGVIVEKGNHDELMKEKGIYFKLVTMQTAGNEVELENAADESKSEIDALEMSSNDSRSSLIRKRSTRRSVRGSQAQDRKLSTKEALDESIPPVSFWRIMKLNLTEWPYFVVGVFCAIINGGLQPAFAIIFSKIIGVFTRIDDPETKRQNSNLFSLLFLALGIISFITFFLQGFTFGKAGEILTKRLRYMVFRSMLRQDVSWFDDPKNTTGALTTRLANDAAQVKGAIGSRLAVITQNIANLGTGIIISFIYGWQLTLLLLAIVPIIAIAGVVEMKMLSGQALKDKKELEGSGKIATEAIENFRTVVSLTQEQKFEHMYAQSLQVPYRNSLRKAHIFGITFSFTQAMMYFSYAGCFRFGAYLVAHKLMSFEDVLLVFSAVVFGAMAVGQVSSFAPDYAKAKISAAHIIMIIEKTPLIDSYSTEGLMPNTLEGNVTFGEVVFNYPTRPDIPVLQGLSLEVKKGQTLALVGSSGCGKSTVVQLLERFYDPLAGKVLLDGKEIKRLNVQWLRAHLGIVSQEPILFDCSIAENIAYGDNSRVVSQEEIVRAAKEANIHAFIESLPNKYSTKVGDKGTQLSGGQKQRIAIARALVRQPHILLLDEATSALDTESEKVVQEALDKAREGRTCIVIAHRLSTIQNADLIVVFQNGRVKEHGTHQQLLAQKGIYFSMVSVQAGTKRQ

Q: `N#CC[C@H](C1CCCC1)n1cc(-c2ncnc3[nH]ccc23)cn1` [RUX, ruxolitinib] was tested. Which IC50 did it give?
A: ~13 µM
